Measured values taken from patent publication US20150031668A1, “CHROMAN DERIVATIVES AS TRPM8 INHIBITORS” (AMGEN INC., priority 2013, published 2015).
Counter-ions that a name gives are not always drawn.

Biological target: T1, human TRPM8 (Homo sapiens, UniProt Q7Z2W7)
T1 construct: expressed in transfected cells; host or cells: Chinese hamster ovary (CHO) cells, T-REx tetracycline-inducible expression system (Invitrogen); co-transfected with pcDNA3.1 aequorin
Assay: Luminescence readout assay for measuring intracellular calcium (aequorin, CHO cells expressing human TRPM8; icilin, L-menthol or cold activation)
Assay type: cell-based
Settings: CHO cells expressing human TRPM8, icilin activation (1 μM), aequorin luminescence; read-out: hTRPM8 IC50
How it was run: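 Activation was by 1 μM icilin, 100 μM L-menthol (test compound 2.5 min ahead) or cold buffer below 10° C (compound 1 min ahead). Calcium rise measured as aequorin luminescence in CHO cells with tetracycline-inducible human TRPM8.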

T1 sequence (Q7Z2W7 whole entry): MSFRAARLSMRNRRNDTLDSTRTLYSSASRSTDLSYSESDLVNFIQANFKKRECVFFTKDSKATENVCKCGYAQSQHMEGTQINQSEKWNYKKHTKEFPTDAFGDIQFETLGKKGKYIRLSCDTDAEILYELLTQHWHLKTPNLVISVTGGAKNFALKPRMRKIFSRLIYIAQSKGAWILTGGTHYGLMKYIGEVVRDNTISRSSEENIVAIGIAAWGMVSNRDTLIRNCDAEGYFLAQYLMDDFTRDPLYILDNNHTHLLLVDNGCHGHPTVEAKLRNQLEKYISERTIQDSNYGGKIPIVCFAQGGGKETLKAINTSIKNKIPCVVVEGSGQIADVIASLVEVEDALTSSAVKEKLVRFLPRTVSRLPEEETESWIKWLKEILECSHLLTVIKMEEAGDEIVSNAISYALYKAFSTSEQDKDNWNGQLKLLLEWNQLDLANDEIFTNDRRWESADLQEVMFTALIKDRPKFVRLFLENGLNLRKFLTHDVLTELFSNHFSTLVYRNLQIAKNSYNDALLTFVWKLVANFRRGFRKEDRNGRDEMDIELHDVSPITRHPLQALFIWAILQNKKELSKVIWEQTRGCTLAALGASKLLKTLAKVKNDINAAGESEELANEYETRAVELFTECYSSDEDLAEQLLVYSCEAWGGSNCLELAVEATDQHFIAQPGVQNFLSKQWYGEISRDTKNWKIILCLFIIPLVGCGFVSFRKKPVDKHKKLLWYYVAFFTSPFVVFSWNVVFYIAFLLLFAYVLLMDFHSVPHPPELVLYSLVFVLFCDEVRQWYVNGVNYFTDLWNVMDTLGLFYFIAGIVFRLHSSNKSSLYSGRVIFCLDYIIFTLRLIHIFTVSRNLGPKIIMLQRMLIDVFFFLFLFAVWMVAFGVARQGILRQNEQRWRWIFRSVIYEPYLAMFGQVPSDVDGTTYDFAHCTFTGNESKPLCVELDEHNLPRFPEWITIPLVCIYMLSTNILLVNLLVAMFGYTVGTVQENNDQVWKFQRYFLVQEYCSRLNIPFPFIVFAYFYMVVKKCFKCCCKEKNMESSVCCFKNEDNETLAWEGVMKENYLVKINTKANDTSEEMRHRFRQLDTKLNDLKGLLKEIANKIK

With Cn1nc2c(c1C(=O)N[C@]1(c3ccc(OC(F)(F)F)cc3)CCOc3cccnc31)CCCC2 [Example 270, (S)-2-methyl-N-(4-(4-(trifluoromethoxy)phenyl)-3,4-dihydro-2H-pyrano[3,2-b]pyridin-4-yl)-4,5,6,7-tetrahydro-2H-indazole-3-carboxamide formate] the IC50 was 44 nM.
Work on Nc1cccc(-c2ccc([C@@]3(NC(=O)c4ccc(F)cc4)CCOc4cccnc43)cc2)c1 [Example 126, (S)-N-(4-(3′-amino-[1,1′-biphenyl]-4-yl)-3,4-dihydro-2H-pyrano[3,2-b]pyridin-4-yl)-4-fluorobenzamide] yielded an IC50 of 908 nM.
O=C(N[C@]1(c2ccc(OC(F)(F)F)c(F)c2)CCOc2cccnc21)c1ccc(Br)o1 [Example 208, (S)-5-bromo-N-(4-(3-fluoro-4-(trifluoromethoxy)phenyl)-3,4-dihydro-2H-pyrano[3,2-b]pyridin-4-yl)furan-2-carboxamide] gave an IC50 of 11 nM.
Cn1cc(C(=O)O)cc1C(=O)N[C@]1(c2ccc(OC(F)(F)F)c(F)c2)CCOc2cccnc21 [Example 335, (S)-5-((4-(3-fluoro-4-(trifluoromethoxy)phenyl)-3,4-dihydro-2H-pyrano[3,2-b]pyridin-4-yl)carbamoyl)-1-methyl-1H-pyrrole-3-carboxylic acid] gave an IC50 of 51 nM.
O=C(Nc1cccnc1)NC1(c2ccc(C(F)(F)F)cc2)CCOc2ccccc21 (stereo not drawn) [Example 70, 1-(pyridin-3-yl)-3-(4-(4-(trifluoromethyl)phenyl)chroman-4-yl)urea] was tested, and the IC50 was 1350 nM.
With CNc1cc(C(=O)N[C@]2(c3ccc(OC(F)(F)F)c(F)c3)CCOc3cccnc32)cc(F)c1C(=O)O [Example 304, (S)-2-fluoro-4-((4-(3-fluoro-4-(trifluoromethoxy)phenyl)-3,4-dihydro-2H-pyrano[3,2-b]pyridin-4-yl)carbamoyl)-6-(methylamino)benzoic acid] the IC50 was 28 nM.
O=C(N[C@]1(c2ccc(-c3ccccn3)cc2)CCOc2cccnc21)c1ccc(F)cc1 [Example 112, (S)-4-fluoro-N-(4-(4-(pyridin-2-yl)phenyl)-3,4-dihydro-2H-pyrano[3,2-b]pyridin-4-yl)benzamide] showed an IC50 of 233 nM.
In the case of O=C(N[C@]1(c2ccc(OC(F)(F)F)c(F)c2)CCOc2cccnc21)c1ccc(C(=O)O)c(NC2CC2)c1 [Example 302, (S)-2-(cyclopropylamino)-4-((4-(3-fluoro-4-(trifluoromethoxy)phenyl)-3,4-dihydro-2H-pyrano[3,2-b]pyridin-4-yl)carbamoyl)benzoic acid], the IC50 is reported as 4 nM.
O=C(N[C@]1(c2ccc(OC(F)(F)F)c(F)c2)CCOc2cccnc21)c1ccc([N+](=O)[O-])cn1 [Example 62, (S)-N-(4-(3-fluoro-4-(trifluoromethoxy)phenyl)-3,4-dihydro-2H-pyrano[3,2-b]pyridin-4-yl)-5-nitropicolinamide] gave an IC50 of 51 nM.
Work on O=C(Nc1cccnc1)NC1(c2ccc(C(F)(F)F)cc2)CCCc2cccnc21 (stereo not drawn) [Example 71, 1-(pyridin-3-yl)-3-(8-(4-(trifluoromethyl)phenyl)-5,6,7,8-tetrahydroquinolin-8-yl)urea] yielded an IC50 of 143 nM.
In the case of O=C(N[C@]1(c2ccc(OC(F)(F)F)cc2)CCOc2cccnc21)c1n[nH]c2ncccc12 [Example 242, (S)-N-(4-(4-(trifluoromethoxy)phenyl)-3,4-dihydro-2H-pyrano[3,2-b]pyridin-4-yl)-1H-pyrazolo[3,4-b] pyridine-3-carboxamide formate], the IC50 is reported as 5.55 nM.
CN(C)C(=O)c1cccc(-c2ccc([C@@]3(NC(=O)c4ccc(F)cc4)CCOc4cccnc43)cc2)c1 [Example 129, (S)-4′-(4-(4-fluorobenzamido)-3,4-dihydro-2H-pyrano[3,2-b]pyridin-4-yl)-N,N-dimethyl-[1,1′-biphenyl]-3-carboxamide] was tested, and the IC50 was 2600 nM.
Compound O=C(N[C@]1(c2ccc(OC(F)(F)F)cc2)CCOc2cccnc21)c1ccc2ncccc2c1 [Example 253, (S)-N-(4-(4-(trifluoromethoxy)phenyl)-3,4-dihydro-2H-pyrano[3,2-b]pyridin-4-yl)quinoline-6-carboxamide formate] has an IC50 of 4 nM.
O=C(Nc1ccc(Cl)nc1)N[C@]1(c2ccc(OC(F)(F)F)c(F)c2)CCOc2cccnc21 [Example 69, (S)-1-(6-chloropyridin-3-yl)-3-(4-(3-fluoro-4-(trifluoromethoxy)phenyl)-3,4-dihydro-2H-pyrano[3,2-b]pyridin-4-yl)urea] gave an IC50 of 36 nM.
Cc1ccncc1-c1ccc([C@@]2(NC(=O)c3ccc(F)cc3)CCOc3cccnc32)cc1 [Example 132, (S)-4-fluoro-N-(4-(4-(4-methylpyridin-3-yl)phenyl)-3,4-dihydro-2H-pyrano[3,2-b]pyridin-4-yl)benzamide] was tested, and the IC50 was 216 nM.
Compound O=C(N[C@]1(c2ccc(OC(F)(F)F)cc2)CCOc2cccnc21)c1cnns1 [Example 214, (S)-N-(4-(4-(trifluoromethoxy)phenyl)-3,4-dihydro-2H-pyrano[3,2-b]pyridin-4-yl)-1,2,3-thiadiazole-5-carboxamide formate] has an IC50 of 190 nM.
Work on O=C(N[C@]1(c2ccc(OC(F)(F)F)cc2)CCOc2cccnc21)c1cc2nccc(C3CC3)n2n1 [Example 224, (S)-7-cyclopropyl-N-(4-(4-(trifluoromethoxy)phenyl)-3,4-dihydro-2H-pyrano[3,2-b]pyridin-4-yl) pyrazolo[1,5-a] pyrimidine-2-carboxamide formate] yielded an IC50 of 116 nM.
For N#Cc1ccc(C(=O)N[C@]2(c3ccc(OC(F)(F)F)c(F)c3)CCOc3cccnc32)nc1 [Example 171, (S)-5-cyano-N-(4-(3-fluoro-4-(trifluoromethoxy)phenyl)-3,4-dihydro-2H-pyrano[3,2-b]pyridin-4-yl) picolinamide], the IC50 was 12 nM.
N#Cc1ccc(-c2ccc([C@@]3(NC(=O)c4ccccc4)CCOc4cccnc43)cc2)cc1 [Example 154, (S)—N-(4-(4′-cyano-[1,1′-biphenyl]-4-yl)-3,4-dihydro-2H-pyrano[3,2-b]pyridin-4-yl)benzamide] was tested, and the IC50 was 91 nM.
Cn1ccc2cc(C(=O)N[C@]3(c4ccc(OC(F)(F)F)cc4)CCOc4cccnc43)ccc21 [Example 258, (S)-1-methyl-N-(4-(4-(trifluoromethoxy)phenyl)-3,4-dihydro-2H-pyrano[3,2-b]pyridin-4-yl)-1H-indole-5-carboxamide formate] was tested, and the IC50 was 34 nM.
Compound Cn1cncc1C(=O)N[C@]1(c2ccc(OC(F)(F)F)c(F)c2)CCOc2cccnc21 [Example 163, (S)—N-(4-(3-fluoro-4-(trifluoromethoxy)phenyl)-3,4-dihydro-2H-pyrano[3,2-b]pyridin-4-yl)-1-methyl-1H-imidazole-5-carboxamide 2,2,2-trifluoroacetate] has an IC50 of 102 nM.
O=C(N[C@]1(c2ccc(OC(F)(F)F)cc2)CCOc2cccnc21)c1cc2ccccc2cn1 [Example 248, (S)-N-(4-(4-(trifluoromethoxy)phenyl)-3,4-dihydro-2H-pyrano[3,2-b]pyridin-4-yl)isoquinoline-3-carboxamide formate] gave an IC50 of 24 nM.
O=C(NC1(c2ccc(OC(F)(F)F)c(F)c2)CCOc2cccnc21)c1ccc(F)cc1 (stereo not drawn) [Example 6, 4-fluoro-N-(4-(3-fluoro-4-(trifluoromethoxy)phenyl)-3,4-dihydro-2H-pyrano[3,2-b]pyridin-4-yl)benzamide] gave an IC50 of 34 nM.
Compound O=C(N[C@]1(c2ccc(-c3cccc(F)c3O)cc2)CCOc2cccnc21)c1ccc(F)cc1 [Example 134, (S)-4-fluoro-N-(4-(3′-fluoro-2′-hydroxy-[1,1′-biphenyl]-4-yl)-3,4-dihydro-2H-pyrano[3,2-b]pyridin-4-yl)benzamide] has an IC50 of 320 nM.
